Laboratory results as given in patent US20050020588A1, “Cysteine protease inhibitors” (priority 1999, published 2005).

Key:
Assay type in all cases: biochemical
Mammalian Cathepsin S = Mammalian Cathepsin S (Homo sapiens, UniProt P25774); assay: Ki competitive inhibition, mammalian cathepsin S; settings: Table 1, first line of each CAP-P2 block; read-out: Ki competitive inhibition measurements vs Mammalian Cathepsin S
Experimental: Cathepsin S (Mammalian, murine and rat)
Assays were performed in 100 mM sodium phosphate, 100 mM NaCl, pH 6.5 (buffer) in white 384 well plates (Coming Costar). Eight inhibitors were assayed per plate.
Inhibitor dilutions were performed on a 96 well V-bottomed polypropylene plate (Corning Costar). 100 μl of buffer was placed in wells 2-5 and 7-12 of rows A, B, C and D. Sufficient of each inhibitor at 10 mM in DMSO was placed into wells A1-D1 and A6-D6 to give the desired final concentration when the volume in the well was made up to 200 μl with buffer. Column 1 was made up to 200 μl with buffer, mixed by aspirating and dispensing 100 μl in the well, and 100 μl transferred to column 2. The pipette tips were changed and the mixing and transferral repeated to column 5. This process was repeated for columns 6-10.
Substrate dilutions were performed on a 96 deep well polypropylene plate (Beckman Coulter). 280 μl of buffer was placed in wells B-H of columns 1 and 2.70 μl of 10 mM boc-Val-Leu-Lys-AMC was placed in A1 and A2. 2×250 μl of buffer was added to wells A1 and A2, mixed by aspirating and dispensing 280 μl in the well, and 280 μl transferred to row B. The pipette tips were changed and the process repeated down the plate to row H.
Column 1 of the substrate dilution plate was distributed at 10 μl per well into alternate rows beginning at row A. Column 2 was distributed to alternate rows beginning at row B. Row A of the inhibitor dilution plate was distributed at 10 μl per well to alternate rows and columns starting at A1. Row B was distributed to alternate rows and columns starting at A2. Row C was distributed to alternate rows and columns starting at B1 and row D was distributed to alternate rows and columns starting at B2. The assay was started by the addition of 30 μl per well of 20 nM cathepsin S in buffer containing 10 mM 2-mercaptoethanol.
(§1) Data were saved as text files and imported into Excel. The initial rates were determined by linear regression and then fitted to the competitive inhibition equation using SigmaPlot.

Mammalian Cathepsin L = Mammalian Cathepsin L (Homo sapiens, UniProt P07711); assay: Ki competitive inhibition, cathepsin L; settings: Table 1, second line of each CAP-P2 block; read-out: Ki competitive inhibition measurements vs Mammalian Cathepsin L
Mammalian Cathepsin L, sequence (P07711 114-333): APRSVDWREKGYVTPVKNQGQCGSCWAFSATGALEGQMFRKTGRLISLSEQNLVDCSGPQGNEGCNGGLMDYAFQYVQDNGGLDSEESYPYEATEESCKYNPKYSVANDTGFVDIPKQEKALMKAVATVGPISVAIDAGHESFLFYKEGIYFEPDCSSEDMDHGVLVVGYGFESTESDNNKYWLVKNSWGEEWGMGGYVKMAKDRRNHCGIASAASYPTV
Experimental: as §1
(§2) Assays were performed essentially as above. For cathepsin L, the buffer used was 100 mM sodium acetate, 1 mM EDTA, pH 5.5 and the substrate was D-Val-Leu-Lys-AMC with a highest concentration of 100 μM. For cathepsin K, the buffer used was 100 mM MES/Tris, 1 mM EDTA, pH 7.0 and the substrate was D-Ala-Leu-Lys-AMC with a highest concentration of 250 μM.

Mammalian Cathepsin K = target: T1, Mammalian Cathepsin K (Homo sapiens, UniProt P43235); assay: Ki competitive inhibition, cathepsin K; settings: Table 1, third line of each CAP-P2 block; read-out: Ki competitive inhibition measurements vs Mammalian Cathepsin K
T1 sequence (P43235 115-329): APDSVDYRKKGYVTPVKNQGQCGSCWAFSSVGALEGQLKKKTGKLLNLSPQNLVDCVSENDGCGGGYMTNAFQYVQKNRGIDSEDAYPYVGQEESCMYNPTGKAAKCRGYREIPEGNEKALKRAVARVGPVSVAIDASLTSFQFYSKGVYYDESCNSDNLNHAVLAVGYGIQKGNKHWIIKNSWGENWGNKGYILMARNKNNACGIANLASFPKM
Experimental: as §2
Convenient assays for cathepsin K arere carried out using human recombinant enzyme. Standard assay conditions for the determination of kinetic constants used a fluorogenic peptide substrate, typically H-D-Ala-Leu-Lys-AMC, and were determined in either 100 mM Mes/Tris, pH 7.0 containing 1 mM EDTA and 10 mM 2-mercaptoethanol or 100 mM Na acetate, pH 5.5 containing 5 mM EDTA and 20 mM cysteine. The enzyme concentration used was 5 nM. The stock substrate solution was prepared at 10 mM in DMSO. Screens were carried out at a fixed substrate concentration of 60 μM and detailed kinetic studies with doubling dilutions of substrate from 250 μM. The total DMSO concentration in the assay was kept below 3%. All assays were conducted at ambient temperature. Product fluorescence (excitation at 390 nm, emission at 460 nm) was monitored with a Labsystems Fluoroskan Ascent fluorescent plate reader. Product progress curves were generated over 15 minutes following generation of AMC product.
Potential inhibitors are screened using the above assay with variable concentrations of test compound. Reactions were initiated by addition of enzyme to buffered solutions of substrate and inhibitor. Ki values were calculated according to equation 1 [formula] where ν0 is the velocity of the reaction, V is the maximal velocity, S is the concentration of substrate with Michaelis constant of KM, and I is the concentration of inhibitor. Determination of Falcipain 2 Proteolytic Catalytic Activity

Mammalian Cathepsin S, sequence (P25774 115-331): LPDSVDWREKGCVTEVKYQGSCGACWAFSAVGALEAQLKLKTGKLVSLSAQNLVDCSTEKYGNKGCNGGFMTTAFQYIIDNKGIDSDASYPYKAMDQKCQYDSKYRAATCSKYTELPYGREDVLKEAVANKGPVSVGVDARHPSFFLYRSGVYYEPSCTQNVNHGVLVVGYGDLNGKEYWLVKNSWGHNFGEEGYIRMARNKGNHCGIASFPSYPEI

Row | SMILES | Ki (Mammalian Cathepsin S) [µM] | Ki (Mammalian Cathepsin L) [µM] | Ki (Mammalian Cathepsin K) [µM]
1 | CCCC[C@H](NC(=O)c1ccccc1)C(=O)N[C@H]1COCC1=O [CAP3-L-Nle/drawing 72] | 0.76 | 2.8 | 5.8
2 | CCCC[C@H](NC(=O)c1ccoc1)C(=O)N[C@H]1C(=O)CO[C@H]1C [CAP8-L-Nle/drawing 70] | 1 | > 100 | > 100
3 | C[C@H]1OCC(=O)[C@H]1NC(=O)[C@H](Cc1ccc(O)cc1)NC(=O)c1ccccc1 [CAP3-L-Tyr/drawing 69] | 1.1 | 0.17 | > 100
4 | CC(C)C[C@H](NC(=O)c1ccc(N(C)C)cc1)C(=O)N[C@H]1COCC1=O [CAP7-L-Leu/drawing 72] | 3.1 | 0.69 | 0.018
5 | CCn1nc(C)cc1C(=O)N[C@@H](Cc1ccc(O)cc1)C(=O)N[C@@H]1C(=O)CO[C@H]1C [CAP10-L-Tyr/drawing 71] | 4.1 | 0.45 | > 100
6 | CC(C)C[C@H](NC(=O)c1ccc(O)cc1)C(=O)N[C@@H]1COCC1=O [CAP1-L-Leu/drawing 73] | 0.27 | 0.39 | 0.07
7 | CC(C)C[C@H](NC(=O)c1ccc(N(C)C)cc1)C(=O)N[C@@H]1COCC1=O [CAP7-L-Leu/drawing 73] | 3.9 | 1.1 | 0.023
8 | CC(C)CC[C@H](NC(=O)c1ccoc1)C(=O)N[C@H]1C(=O)CO[C@H]1C [CAP8-L-hLeu/drawing 70] | 0.45 | > 100 | > 100
9 | CCCC[C@H](NC(=O)c1ccc(O)cc1)C(=O)N[C@@H]1COCC1=O [CAP1-L-Nle/drawing 73] | 0.49 | 4.4 | 1.15
10 | CCn1nc(C)cc1C(=O)N[C@@H](Cc1ccc(O)cc1)C(=O)N[C@@H]1COCC1=O [CAP10-L-Tyr/drawing 73] | 3.7 | 0.1 | > 100
11 | CCCC[C@H](NC(=O)c1ccoc1)C(=O)N[C@@H]1C(=O)CO[C@@H]1C [CAP8-L-Nle/drawing 69] | 1.5 | 54.4 | 13.2
12 | Cc1cc(C(=O)N[C@@H](CC(C)C)C(=O)N[C@@H]2COCC2=O)oc1C [CAP6-L-Leu/drawing 73] | 0.48 | 0.19 | 0.33
13 | CC(C)C[C@H](NC(=O)N1CCOCC1)C(=O)N[C@H]1C(=O)CO[C@H]1C [CAP9-L-Leu/drawing 70] | 0.8 | 7.9 | 4.8
14 | CC(C)CC[C@H](NC(=O)c1ccc(O)cc1)C(=O)N[C@H]1C(=O)CO[C@H]1C [CAP1-L-hLeu/drawing 70] | 0.3 | 29.8 | 24.1
15 | CCCC[C@H](NC(=O)c1ccc(O)cc1)C(=O)N[C@@H]1C(=O)CO[C@H]1C [CAP1-L-Nle/drawing 71] | 0.4 | 19.3 | 8.9
16 | C[C@H]1OCC(=O)[C@H]1NC(=O)[C@H](CC(C)(C)C)NC(=O)c1cccs1 [CAP5-L-tBu-Ala/drawing 69] | 0.47 | 24.6 | 0.65
17 | C[C@@H]1OCC(=O)[C@@H]1NC(=O)[C@H](Cc1ccc(O)cc1)NC(=O)c1ccccc1 [CAP3-L-Tyr/drawing 70] | 0.17 | 1.4 | > 100
18 | C[C@H]1OCC(=O)[C@H]1NC(=O)[C@H](Cc1ccc(O)cc1)NC(=O)c1cccs1 [CAP5-L-Tyr/drawing 69] | 1.6 | 0.5 | > 100

Row | SMILES | Ki (Mammalian Cathepsin S) [µM] | Ki (Mammalian Cathepsin L) [µM] | Ki (Mammalian Cathepsin K) [µM]
19 | CC(C)(C)CC(NC(=O)c1ccoc1)C(=O)NC1COCC1=O [CAP8-L-tBu-Ala/drawing 72] | 0.21 | 36.4 | 0.85
20 | C[C@H]1OCC(=O)[C@H]1NC(=O)[C@H](CC(C)(C)C)NC(=O)c1ccc(O)cc1 [CAP1-L-tBu-Ala/drawing 69] | 0.25 | 3.9 | 0.39
21 | Cc1cc(C(=O)N[C@@H](CC(C)C)C(=O)N[C@@H]2C(=O)CO[C@H]2C)oc1C [CAP6-L-Leu/drawing 71] | 0.68 | 0.67 | 2.75
22 | CC(C)CC[C@H](NC(=O)N1CCOCC1)C(=O)N[C@@H]1C(=O)CO[C@@H]1C [CAP9-L-hLeu/drawing 69] | 0.78 | 48.7 | 34.3
23 | C[C@@H]1OCC(=O)[C@@H]1NC(=O)[C@H](CC(C)(C)C)NC(=O)c1ccoc1 [CAP8-L-tBu-Ala/drawing 70] | 0.2 | > 100 | 19.9
24 | CCCC[C@H](NC(=O)c1ccc(N(C)C)cc1)C(=O)N[C@@H]1C(=O)CO[C@H]1C [CAP7-L-Nle/drawing 71] | 6.2 | 49.9 | 1.3
25 | CCCC[C@H](NC(=O)c1ccc(O)cc1)C(=O)N[C@H]1COCC1=O [CAP1-L-Nle/drawing 72] | 0.56 | 3.3 | 1.4
26 | CC(C)CC[C@H](NC(=O)c1ccoc1)C(=O)N[C@@H]1C(=O)CO[C@@H]1C [CAP8-L-hLeu/drawing 69] | 0.97 | 38.9 | 16
27 | CC(C)CC[C@H](NC(=O)N1CCOCC1)C(=O)N[C@@H]1C(=O)CO[C@H]1C [CAP9-L-hLeu/drawing 71] | 0.52 | > 100 | > 100
28 | CC(C)CC[C@H](NC(=O)N1CCOCC1)C(=O)N[C@H]1C(=O)CO[C@H]1C [CAP9-L-hLeu/drawing 70] | 0.7 | > 100 | > 100
29 | C[C@H]1OCC(=O)[C@H]1NC(=O)[C@H](CC(C)(C)C)NC(=O)c1ccc(N(C)C)cc1 [CAP7-L-tBu-Ala/drawing 69] | 2.7 | 13.1 | 0.04
30 | C[C@H]1OCC(=O)[C@H]1NC(=O)[C@H](CC(C)(C)C)NC(=O)N1CCOCC1 [CAP9-L-tBu-Ala/drawing 69] | 0.58 | 30.4 | 4.2
31 | CC(C)CC[C@H](NC(=O)c1ccoc1)C(=O)N[C@@H]1COCC1=O [CAP8-L-hLeu/drawing 73] | 0.44 | 61.2 | 8.7
32 | C[C@@H]1OCC(=O)[C@@H]1NC(=O)[C@H](Cc1ccc(O)cc1)NC(=O)c1ccc(O)cc1 [CAP1-L-Tyr/drawing 70] | 1 | 1.8 | > 100
33 | Cc1cc(C(=O)N[C@@H](Cc2ccc(O)cc2)C(=O)N[C@@H]2C(=O)CO[C@@H]2C)oc1C [CAP6-L-Tyr/drawing 69] | 2 | 0.055 | > 100
34 | CCn1nc(C)cc1C(=O)N[C@@H](CC(C)C)C(=O)N[C@@H]1C(=O)CO[C@@H]1C [CAP10-L-Leu/drawing 69] | 1.3 | 0.71 | 3
35 | CCn1nc(C)cc1C(=O)N[C@@H](Cc1ccc(O)cc1)C(=O)N[C@H]1C(=O)CO[C@H]1C [CAP10-L-Tyr/drawing 70] | 0.34 | 0.46 | > 100
36 | CC(C)C[C@H](NC(=O)c1ccc(N(C)C)cc1)C(=O)N[C@H]1C(=O)CO[C@H]1C [CAP7-L-Leu/drawing 70] | 4.2 | 6.8 | 0.17
